Converted amounts (≈) assume the structure as drawn.
Experiments:
[1] = target: human C5 complement protein (Homo sapiens, UniProt P01031); assay: Surface plasmon resonance (SPR), immobilized human C5, 37° C. (Example 18, Table 24); type: binding; settings: lowest value obtained where a range of concentrations was analyzed
[2] = Permeability assay, unidirectional transport, Papp (Example 30, Table 34); type: in vitro ADME, canine; settings: dog, pH 7.4; MDCK-WT cell monolayers, A-to-B, 3 μM test compound, 37° C., duplicate determinations
Procedure: Permeability assays were carried out to provide a preliminary indication of suitability for oral dosing and compound permeability across the blood brain barrier. Unidirectional and bidirectional compound transport across Madin Darby canine kidney (MDCK) cell monolayers was assessed. For unidirectional transport assessment, transport across MDCK wild type (MDCK-WT) cell monolayers was assessed. For bidirectional transport, transport across MDCK-MDR1 cell monolayers was assessed. MDCK-MDR1 cells express the MDR1 gene encoding the P-glycoprotein (P-gp) efflux protein.
MDCK-WT and MDCK-MDR1 cells were plated onto permeable polycarbonate supports in 12-well Costar transwell plates and allowed to grow and differentiate for 3 days. After 3 days in culture, the culture medium (DMEM supplemented with 10% FBS) was removed from both sides of the transwell inserts and cells were rinsed with warm HBSS. After the rinse step, the chambers were filled with warm transport buffer (HBSS containing 10 mM HEPES, 0.25% BSA, pH 7.4) and the plates were pre-incubated at 37° C. for 30 minutes prior to TEER (Trans Epithelial Electric Resistance) measurements.
The buffer in the donor chamber (apical side for A-to-B assay, basolateral side for B-to-A assay) was removed and replaced with the working solution (3 μM test compound and 10 μM for control compounds in transport buffer). The plates were then placed at 37° C. under light agitation. At designated time points (30, 60 and 90 min), an aliquot of transport buffer from the receiver chamber was removed and replenished with fresh transport buffer. Samples were quenched with ice-cold ACN containing internal standard and then centrifuged to pellet protein. Resulting supernatants were further diluted with 50/50 ACN/H2O (Atenolol diluted in just water) and submitted for LC-MS/MS analysis. Apparent permeability (Pap) values were calculated from duplicate determinations. Atenolol and propranolol were tested as low and […] permeability references.
Papp values indicate extent of compound permeation across monolayers.

[3] = Kinetic solubility in PBS pH 7.4, HPLC-UV (Example 21, Table 27); type: physicochemical; settings: phosphate buffered saline, aqueous buffer, kinetic from dmso stock, 0.5 M PBS, shaken minimum 24 h at approximately 25° C., HPLC-UV 270 nm
How it was run: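 10 mM DMSO stock diluted into 0.05 M PBS pH 7.4 (5% DMSO final), in triplicate, shaken ≥24 h at ~25 °C, then filtered by centrifugation. Supernatant concentration by HPLC-UV at 270 nm against external DMSO standards (15.6–500.0 μM).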

Human C5 = target: T1, Human C5 (Homo sapiens, UniProt P01031); assay: Red blood cell (RBC) hemolysis assay, luminescent (Example 24, Table 29); type: cell-based; settings: sheep EA cells, […] C5-depleted human serum, 0.5 nM human C5, 1 hour at 37° C., luminescence (Table 29)
T1 construct: purchased Complement Technology
Description: Numbers in parenthesis following the compound number indicate alternate enantiomers (as distinguished by retention time during chromatographical separation).

Sequence of human C5 complement protein (P01031 19-1676): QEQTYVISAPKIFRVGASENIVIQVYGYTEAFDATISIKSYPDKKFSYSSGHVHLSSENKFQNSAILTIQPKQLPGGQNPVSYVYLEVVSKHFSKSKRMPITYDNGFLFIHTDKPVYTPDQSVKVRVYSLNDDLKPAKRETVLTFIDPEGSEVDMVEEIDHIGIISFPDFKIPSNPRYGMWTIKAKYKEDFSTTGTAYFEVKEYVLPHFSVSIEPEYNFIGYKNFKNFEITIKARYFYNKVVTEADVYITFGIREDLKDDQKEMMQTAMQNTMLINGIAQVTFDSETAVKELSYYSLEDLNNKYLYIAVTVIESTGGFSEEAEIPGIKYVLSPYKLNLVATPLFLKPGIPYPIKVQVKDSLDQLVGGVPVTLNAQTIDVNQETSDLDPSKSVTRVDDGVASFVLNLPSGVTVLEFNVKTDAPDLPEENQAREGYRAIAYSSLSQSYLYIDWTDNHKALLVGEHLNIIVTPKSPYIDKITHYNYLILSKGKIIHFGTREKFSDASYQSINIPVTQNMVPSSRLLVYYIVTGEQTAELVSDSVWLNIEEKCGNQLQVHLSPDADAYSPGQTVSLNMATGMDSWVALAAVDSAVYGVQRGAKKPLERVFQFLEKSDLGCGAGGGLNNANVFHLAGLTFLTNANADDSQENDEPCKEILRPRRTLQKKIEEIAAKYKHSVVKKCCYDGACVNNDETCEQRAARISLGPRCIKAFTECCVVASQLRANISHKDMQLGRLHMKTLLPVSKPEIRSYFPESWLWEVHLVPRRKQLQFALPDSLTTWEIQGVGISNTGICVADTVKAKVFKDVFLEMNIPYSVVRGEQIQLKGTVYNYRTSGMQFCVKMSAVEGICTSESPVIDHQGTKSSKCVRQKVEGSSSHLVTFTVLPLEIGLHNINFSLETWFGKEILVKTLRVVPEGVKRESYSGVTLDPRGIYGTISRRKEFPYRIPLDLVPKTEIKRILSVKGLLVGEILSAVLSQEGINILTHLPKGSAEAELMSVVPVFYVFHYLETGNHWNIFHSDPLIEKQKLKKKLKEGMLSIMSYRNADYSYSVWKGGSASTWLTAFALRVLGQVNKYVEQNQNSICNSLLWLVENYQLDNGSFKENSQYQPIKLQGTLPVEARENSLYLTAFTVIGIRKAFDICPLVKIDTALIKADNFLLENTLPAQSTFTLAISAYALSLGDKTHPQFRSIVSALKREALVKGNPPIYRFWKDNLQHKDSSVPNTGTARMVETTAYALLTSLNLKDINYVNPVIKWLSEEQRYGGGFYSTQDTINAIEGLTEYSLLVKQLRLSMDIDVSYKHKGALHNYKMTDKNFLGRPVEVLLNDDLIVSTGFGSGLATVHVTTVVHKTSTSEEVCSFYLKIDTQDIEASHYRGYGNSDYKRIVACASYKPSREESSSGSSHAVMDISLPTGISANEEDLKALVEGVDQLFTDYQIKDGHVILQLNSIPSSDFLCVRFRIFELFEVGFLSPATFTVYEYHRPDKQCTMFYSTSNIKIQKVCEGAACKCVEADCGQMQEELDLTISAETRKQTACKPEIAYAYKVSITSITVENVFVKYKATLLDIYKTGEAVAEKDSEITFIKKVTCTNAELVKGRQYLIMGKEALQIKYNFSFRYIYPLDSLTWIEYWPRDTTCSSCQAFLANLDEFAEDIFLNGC
T1 sequence (P01031 19-1676): as above

CCCCCOc1cc(N2CCCN(Cc3ccc(CCN4[C@H](C)CC[C@@H]4C)cc3OC)C2=O)ccc1OC [CU0690]
Kd [1]: 1.69 nM

CCCCCOc1cc(N2CCCN(Cc3ccnc4c3c(Cl)cn4CC(=O)N3CC[C@@H](N(C)C)C3)C2=O)ccc1OC [CU0520]
Papp A→B at 3 μM [2]: 3.9 ×10⁻⁶ cm/s
solubility kinetic [3]: 366 µM (≈ 224 µg/mL)

CCCCCOc1cc(N2CCCN(Cc3ccc(CNC4CCN(C)C4=O)cc3OC)C2=O)ccc1OC (stereo not drawn) [CU0626]
Kd [1]: 1.04 nM

CCCCCOc1cc(N2CC[C@H](C)N(Cc3ccnc4c3c(Cl)cn4CC(=O)N(C)C)C2=O)ccc1OC [SC0108]
Papp A→B at 3 μM [2]: 21.7 ×10⁻⁶ cm/s
solubility kinetic [3]: 141 µM (≈ 78.4 µg/mL)

CCCCCOc1cc(N2CCCN(Cc3ccc(CCNC=O)cc3OC)C2=O)ccc1OC [CU0704]
Kd [1]: 2.32 nM

CCCCCOc1cc(N2CCCN(Cc3ccc(CCNC(C)=O)cc3OC)C2=O)ccc1OC [CU0695]
Kd [1]: 1.35 nM

COc1ccc(N2CCCN(Cc3cccc4c3c(Cl)cn4CC(=O)N(C)C)C2=O)cc1OCCC[C@H]1C[C@H]1C (racemic) [CU0515]
solubility kinetic [3]: < 10 µM
Kd [1]: 0.32 nM

CCCCCOc1cc(N2CCCN(Cc3ccnc4c3c(Cl)cn4CC(=O)N3CC[C@H](OC)C3)C2=O)ccc1OC [CU0504]
Kd [1]: 0.254 nM

COc1cc(CNC(=O)c2cocn2)ccc1CN1CCCN(c2ccc(OC)c(OCCCC3CCC3)c2)C1=O [CU0565]
Kd [1]: 0.024 nM

C#CC(C)NC(=O)Cn1cc(Cl)c2c(CN3CCCN(c4ccc(OC)c(OCCCCC)c4)C3=O)ccnc21 (stereo not drawn) [CU0572]
Kd [1]: 0.074 nM

COc1cc(CCNC(C)=O)ccc1CN1CCCN(c2ccc(OC)c(OCCCC3CC3)c2)C1=O [CU0668]
Kd [1]: 2.53 nM

CCCCCOc1cc(N2CCCN(Cc3ccnc4c3c(Cl)cn4CC(=O)NO)C2=O)ccc1OC [CU0575]
Kd [1]: 0.304 nM

COc1cc(CCN2CCCC2)ccc1CN1CCCN(c2ccc(OC)c(OCCCC3CC3)c2)C1=O [CU0662]
Kd [1]: 1.15 nM

CCCCCOc1cc(N2CCCN(Cc3ccnc4c3c(I)cn4CC(=O)N(C)C)C2=O)ccc1OC [CU0535]
Kd [1]: 0.053 nM

CCCCCOc1cc(N2CCCN(Cc3ccnc4c3c(Cl)cn4CC(=O)NC3(C)COC3)C2=O)ccc1OC [CU0567]
solubility kinetic [3]: < 10 µM
Kd [1]: 0.118 nM

COc1cc(CNC(C)=O)ccc1CN1CCCN(c2ccc(OC)c(OCCCCC3CC3)c2)C1=O [CU0613]
solubility kinetic [3]: 190 µM (≈ 96.8 µg/mL)
Kd [1]: 0.533 nM

COc1cc(CC(=O)N2CCOC(CN(C)C)C2)ccc1CN1CCCN(c2ccc(OC)c(OCCCC3CC3)c2)C1=O (stereo not drawn) [CU0550]
solubility kinetic [3]: 455 µM (≈ 277 µg/mL)
Kd [1]: 0.031 nM

COc1cc(CN)ccc1CN1CCCN(c2ccc(OC)c(OCCCC3CCC3)c2)C1=O [CU0708]
Kd [1]: 0.018 nM

COc1cc(CNC(=O)c2cocn2)ccc1CN1CCCN(c2ccc(OC)c(OCCCCC3CC3)c2)C1=O [CU0571]
Kd [1]: 0.481 nM

COc1ccc(N2CCCN(Cc3ccnc4c3c(Cl)cn4CC(=O)N(C)C)C2=O)cc1OCCC[C@H]1C[C@H]1C (racemic) [CU0516]
solubility kinetic [3]: 30 µM (≈ 17 µg/mL)
Kd [1]: 0.15 nM

CCCCCOc1cc(N2CCCN(Cc3cccc4c3c(I)cn4CC(=O)N(C)C)C2=O)ccc1OC [CU0508]
Kd [1]: 0.009 nM

CCCCCOc1cc(N2CCCN(Cc3cccc4c3ccn4[C@H]3CCN(C)C3=O)C2=O)ccc1OC [CU0644]
solubility kinetic [3]: 450 µM (≈ 233 µg/mL)
Kd [1]: 1.11 nM

COc1ccc(N2CCCN(Cc3ccnc4c3c(Cl)cn4CC(=O)N(C)C)C2=O)cc1OCCCC1CC1 [CU0530]
Kd [1]: 0.051 nM

COc1cc(CCN2CCCC2)ccc1CN1CCCN(c2ccc(OC)c(OCCCCC3CC3)c2)C1=O [CU0718]
Kd [1]: 0.245 nM

COc1ccc(N2CCCN(Cc3ccnc4c3c(Cl)cn4CC(=O)N(C)C)C2=O)cc1OCCC[C@H]1C[C@@H]1C [CU0610]
solubility kinetic [3]: 37 µM (≈ 21 µg/mL)
Kd [1]: 0.207 nM

CCCCCOc1cc(N2CCCN(Cc3ccnc4c3c(Cl)cn4CC(=O)N(C)O)C2=O)ccc1OC [CU0514]
Kd [1]: 0.093 nM

CCCCCOc1cc(N2CCCN(Cc3ccnc4c3c(Cl)cn4CC(=O)N(C)CCC#N)C2=O)ccc1OC [CU0528]
solubility kinetic [3]: 50 µM (≈ 29.1 µg/mL)
Kd [1]: 0.057 nM

COc1cc(CC(=O)N2CCOCC2)ccc1CN1CCCN(c2ccc(OC)c(OCCCCC3CC3)c2)C1=O [CU0598]
solubility kinetic [3]: < 10 µM
Kd [1]: 0.747 nM

CCCCCOc1cc(N2CCCN(Cc3ccnc4c3c(Cl)cn4C3CCOCC3)C2=O)ccc1OC [CU0513]
Papp A→B at 3 μM [2]: 9.6 ×10⁻⁶ cm/s
solubility kinetic [3]: < 10 µM

CCCCCOc1cc(N2CCCN(Cc3ccnc4c3c(Cl)cn4CC(=O)N3CCOC3)C2=O)ccc1OC [CU0509]
Kd [1]: 0.069 nM

CCCCCOc1cc(N2CCCN(Cc3ccnc4c3c(Cl)cn4CC(=O)N3CCO[C@@H](CN(C)C)C3)C2=O)ccc1OC [CU0519]
Kd [1]: 0.291 nM

CCCCCOc1cc(N2CCCN(Cc3ccnc4c3c(Cl)cn4CC(=O)NOC)C2=O)ccc1OC [CU0500]
solubility kinetic [3]: 10 µM (≈ 5.44 µg/mL)
Kd [1]: 1.2 nM

CCCCCOc1cc(N2CCCN(Cc3ccnc4c3c(Cl)cn4CCO)C2=O)ccc1OC [CU0576]
Kd [1]: 0.221 nM

CCCCCOc1cc(N2CCCN(Cc3ccnc4c3c(Cl)cn4CC(=O)N3CCCC3)C2=O)ccc1OC [CU0541]
solubility kinetic [3]: 61 µM (≈ 34.7 µg/mL)
Kd [1]: 0.31 nM

COc1cc(CN)ccc1CN1CCCN(c2ccc(OC)c(OCCCCC3CC3)c2)C1=O [CU0686]
Kd [1]: 0.618 nM

CCCCCOc1cc(N2CCCN(Cc3ccnc4c3c(Cl)cn4CC(=O)N3CC[C@H](N(C)C)C3)C2=O)ccc1OC [CU0521]
Papp A→B at 3 μM [2]: 3.9 ×10⁻⁶ cm/s
solubility kinetic [3]: 413 µM (≈ 252 µg/mL)

CCCCCOc1cc(N2CCCN(Cc3ccnc4c3c(Cl)cn4CC(=O)N(C)OC)C2=O)ccc1OC [CU0527]
Kd [1]: 0.041 nM

CCCCCOc1cc(N2CCCN(Cc3ccc(CCN4CCCC4(C)C)cc3OC)C2=O)ccc1OC [CU0671]
solubility kinetic [3]: 397 µM (≈ 213 µg/mL)
Kd [1]: 0.275 nM

CCCCCOc1cc(N2CCCN(Cc3ccc(CC(=O)N4CCCC4C)cc3OC)C2=O)ccc1OC (stereo not drawn) [CU0632]
Kd [1]: 0.88 nM

COc1ccc(N2CCCN(Cc3cccc4c3c(Cl)cn4CC(=O)N(C)C)C2=O)cc1OCCC[C@H]1C[C@@H]1C (racemic) [CU0524]
solubility kinetic [3]: < 10 µM
Kd [1]: 0.038 nM

COc1ccc(N2CCCN(Cc3ccnc4c3ccn4CC(=O)N(C)C)C2=O)cc1OCCC[C@H]1C[C@H]1C (racemic) [CU0737]
Kd [1]: 8.1 nM

COc1ccc(N2CCCN(Cc3cccc4c3ccn4CC(=O)N(C)C)C2=O)cc1OCCC[C@H]1C[C@@H]1C (racemic) [CU0681]
Kd [1]: 2.19 nM

COc1cc(CC(=O)N2CCNC(=O)C2)ccc1CN1CCCN(c2ccc(OC)c(OCCCC3CC3)c2)C1=O [CU0562]
solubility kinetic [3]: 480 µM (≈ 271 µg/mL)
Kd [1]: 0.498 nM

COc1cc(CC(=O)N(C)C)ccc1CN1CCCN(c2ccc(OC)c(OCCCCC(C)(C)C)c2)C1=O [CU0638]
solubility kinetic [3]: 30 µM (≈ 16.2 µg/mL)
Kd [1]: 0.094 nM

CCCCCOc1cc(N2CCCN(Cc3cccc4c3c(Br)cn4CC(=O)N(C)C)C2=O)ccc1OC [CU0543]
solubility kinetic [3]: 256 µM (≈ 150 µg/mL)
Kd [1]: 0.016 nM

COc1cc(CCN2CCCC2)ccc1CN1CCCN(c2ccc(OC)c(OCCCC3CCC3)c2)C1=O [CU0699]
Kd [1]: 0.078 nM

CCCCCOc1cc(N2CCCN(Cc3ccc(CNC(=O)c4ccco4)cc3OC)C2=O)ccc1OC [CU0597]
Kd [1]: 0.115 nM

COc1cc(CN)ccc1CN1CCCN(c2ccc(OC)c(OCCCC3CC3)c2)C1=O [CU0657]
Kd [1]: 1.32 nM

CCCCCOc1cc(N2CCCN(Cc3ccnc4c3c(Cl)cn4CC(=O)NC3CCOC3)C2=O)ccc1OC (stereo not drawn) [CU0561]
Kd [1]: 0.14 nM

COc1cc(CC(=O)N2CCOCC2)ccc1CN1CCCN(c2ccc(OC)c(OCCCC3CC3(F)F)c2)C1=O (stereo not drawn) [CU0601]
Kd [1]: 0.133 nM

COc1cc(CNC(=O)OC(C)(C)C)ccc1CN1CCCN(c2ccc(OC)c(OCCCC3CC3)c2)C1=O [CU0669]
Kd [1]: 0.041 nM

COc1ccc(N2CCCN(Cc3ccnc4c3c(Cl)cn4CC(=O)N(C)C)C2=O)cc1OCCCC(F)(F)C(F)(F)F [CU0502]
Kd [1]: 0.32 nM

CCCCCOc1cc(N2CCCN(Cc3ccnc4c3c(Cl)cn4CC(=O)NC3COC3)C2=O)ccc1OC [CU0540]
solubility kinetic [3]: < 10 µM
Kd [1]: 0.158 nM

C=C1CN(Cc2cc(F)ccc2OC)C(=O)N(c2ccc(OC)c(OCCCCC)c2)C1 [SC0060]
solubility kinetic [3]: < 10 µM
IC50 (Human C5): 22.5 nM

CCCCCOc1cc(N2CCCN(Cc3cccc4c3ccn4CC3(O)CCN(CC(=O)N(C)C)CC3)C2=O)ccc1OC [CU0675]
solubility kinetic [3]: 430 µM (≈ 267 µg/mL)
Kd [1]: 0.86 nM

COc1cc(CNC(=O)c2cocn2)ccc1CN1CCCN(c2ccc(OC)c(OCCCC3CC3)c2)C1=O [CU0537]
Kd [1]: 0.039 nM

COc1cc(CC(=O)N2CCOCC2)ccc1CN1CCCN(c2ccc(OC)c(OCCCC3CCC3)c2)C1=O [CU0589]
solubility kinetic [3]: 131 µM (≈ 74.1 µg/mL)
Kd [1]: 0.302 nM
